Experiments:
H3255 cells = experiment: MTT cell growth inhibition assay; assay type: cell-based; details: Homo sapiens, NCI-H3255, H3255 cells (EGFR L858R mutant), 48 h
Protocol: (§1) NSCLC having EGFR with L858R mutation is also respond to EGFR kinase inhibitors. H3255 cells expressing EGFR L858R mutant is sensitive to EGFR kinase inhibitors. In order to measure the sensitivity of five NSCLC cell lines to F-IRS, […] assay was performed. Tumor cells were plated at a density of 2 × 10^3 cells/well into 96-well plates in RPMI 1640 with 10% FBS. Cells were kept in the log phase of proliferative activity. Various concentrations of F-IRS added to each well, and incubation was continued for an additional 48 h. Then, 50 μL of MTT solution (2 mg/mL; Sigma) were added to all wells, and incubation was continued for another 2 h. The media containing MTT solution was removed, and the precipitated material was dissolved by adding 100 μL of DMSO. The absorbance was measured with a microplate reader at test and reference wavelengths of […], respectively. The percentage of growth is shown relative to untreated controls.

HCC827 cells [1] = experiment: MTT cell growth inhibition assay; assay type: cell-based; details: Homo sapiens, HCC827 cells (19 exon deleted mutant EGFR), 48 h
Protocol: as §1

H358 cells [2] = experiment: MTT cell growth inhibition assay; assay type: cell-based; details: Homo sapiens, NCI-H358, H358 cells (WT EGFR), 48 h
Protocol: as §1

H1975 cells [3] = experiment: MTT cell growth inhibition assay; assay type: cell-based; details: Homo sapiens, NCI-H1975, H1975 cells (L858R and T790M EGFR mutations), 48 h
Protocol: as §1

H520 cells [4] = experiment: MTT cell growth inhibition assay; assay type: cell-based; details: Homo sapiens, NCI-H520, H520 cells (negative EGFR), 48 h
Protocol: as §1

H358 xenografts [5] = experiment: In vivo PET/CT imaging of tumor-bearing mice; parameters: species or system BALB/c nude mice; details: H358 tumors, all time points
Protocol: (§2) All animal studies were conducted in accordance with the China Guidelines for Animal Care and Ethic for Animal Experiments and the experimental protocols were approved by the Animal Use and Care Committee of Harbin Medical University. Female BALB/c nude mice (from the Shanghai Slack Experimental Animal Center of qualified animals SCXK) approximately 4–6 weeks of age and mean weight 20–22 g were used. Approximately 5 × 10^6 of cultured HCC827, H1975, H358 and H520 cells were suspended in PBS/Matrigel (1:1) (BD Bioscience) and subcutaneously implanted in the right shoulders of Female BALB/c nude mice. PET/CT studies were performed when the tumor volume reached 250 mm^3 (4–6 weeks after inoculation).
(§3) PET/CT imaging of tumor-bearing mice was performed on a clinical time-of-flight (TOF) 64-slice PET/Computed tomography (CT) scanner (Discovery 790 Elite, GE healthcare). The mice bearing tumors (for each group n = 4) were injected with 3.7 MBq (100 μCi) of ^18F-IRS into the tail vein. At 30 min, 60 min and 120 min after injection, the mice were anesthetized with 2% isoflurane and placed near the center of the field of view of the PET/CT scanner in prone position. For blocking studies, gefitinib (100 mg/kg) was injected into HCC827 xenografts nude mice (n = 4) via tail vein 60 min before PET/CT imaging. The mice were imaged as described above 120 min after injection.
(§4) The images were reconstructed using a two-dimensional ordered-subset expectation maximization (OSEM) algorithm. For each scan, regions of interest (ROIs) were drawn over the tumor and major organs using the AW4.6 software (GE Healthcare) on decay-corrected whole-body coronal images. The radioactivity concentrations (accumulations) within the tumor, muscle were obtained from mean pixel values within the multiple ROI volumes and then converted to megabecquerels per milliliter per minute using the calibration factor determined for the PET system. These values were then divided by the administered activity to obtain (assuming a tissue density of 1 g/ml) an image ROI-derived percent injected dose per gram (% ID/g).

H1975 xenografts = experiment: In vivo PET/CT imaging of tumor-bearing mice; parameters: species or system BALB/c nude mice; details: H1975 tumors, all time points
Protocol: as §2, §3, §4

H520 xenografts [6] = experiment: In vivo PET/CT imaging of tumor-bearing mice; parameters: species or system BALB/c nude mice; details: H520 tumors, all time points
Protocol: as §2, §3, §4

H358 xenografts [7] = experiment: Ex vivo biodistribution, tumor uptake; assay type: in vivo, BALB/c nude mice; details: H358 tumors, 120 min after injection
Protocol: as §2
(§5) Biodistribution studies were performed in BALB/c nude mice bearing HCC827, H1975, H358 and H520 xenografts by injecting 3.7MBq of ^18F-IRS into the tail vein (n = 4 per group) and then sacrificing the animals at 30 min, 60 min and 120 min after injection. Tumor and normal tissues were excised and weighed, and the radioactivity was measured using a gamma-counter (Wizard 2, PerkinElmer). All measurements were background-subtracted and decay-corrected to the time of injection and then averaged together. The radioactivity uptake in tumor and normal tissues was expressed as the percentage of the injected dose per gram of organ (% ID/g).

HCC827 xenografts [8] = experiment: Ex vivo biodistribution, tumor uptake; assay type: in vivo, BALB/c nude mice
Protocol: as §2, §5

H520 xenografts [9] = experiment: Ex vivo biodistribution, tumor uptake; assay type: in vivo, BALB/c nude mice; details: H520 tumors, 120 min after injection
Protocol: as §2, §5

H358 cells [10] = experiment: Cellular uptake and efflux assay; assay type: cell-based, human; details: 120 min of incubation
Protocol: (§6) Cells were trypsinized and seeded overnight in 12-well culture plates at a density of 1 × 10^5 cells per well (1 × 10^5 cells/1.0 mL/well). ^18F-IRS (37 kBq/1.0 mL/well) in 1 ml of serum free 1640 medium was added to each well and incubated at 37 °C for 15 min, 30 min, 60 min and 120 min. Triplicates were carried out for each time point. One milliliter of ice-cold PBS was used to intercept the uptake of tracer. The supernatants were aspirated and the cells were rinsed twice with 1 mL of ice-cold PBS to remove surface-bound radioactive ligand. After washing twice with PBS, the cells were harvested by the addition of 250 μl of 0.1 N NaOH. Efflux assays were performed after 120 min of incubation with ^18F-IRS and then the media was removed and replaced with serum free 1640 medium without ^18F-IRS. At 15 min, 30 min, 60 min and 120 min, the media was removed and the cells washed twice with ice-cold PBS. 200 μl of 0.1 N NaOH were added to […] the cells and then the wells were washed twice with 1 ml of ice-cold PBS. The cell solution and the PBS from each washed well were recovered and counted with CPM in a gamma counter (Wizard 2, PerkinElmer). The results were calculated using the same cellular uptake formula. For blocking experiments, gefitinib (100 μmol/L) was added to HCC827 cells. After 60 min of incubation, the uptake and efflux assays in HCC827 cells were repeated thrice.

H1975 cells [11] = experiment: Cellular uptake and efflux assay; assay type: cell-based, human; details: 120 min of incubation
Protocol: as §6

H520 cells [12] = experiment: Cellular uptake and efflux assay; assay type: cell-based, human; details: 120 min of incubation
Protocol: as §6

[13] = tested on: NSCLC with responsive EGFR exon 19 deleted; experiment: PET/CT examination of patients with NSCLC; assay type: in vivo, human
From the text: This study (ClinicalTrials.gov number, NCT03031522) was approved by the Medical Ethics Review Committee of the Fourth Hospital of Harbin Medical University. Subjects signed written informed consent after receiving an explanation of the study. The images provided in this article have been agreed by the subjects. The diagnosis was confirmed by histopathological examination. Three patients confirmed having NSCLC with responsive EGFR exon 19 deleted by histopathology participated in the study from January 2015 to February 2016 (Table 2). ^18F-IRS scans were performed on PET/CT (Discovery 790 Elite; GE healthcare). Approximately 222MBq (6 mCi) of ^18F-IRS was administered intravenously within 5 minutes. Scanning was in initiated 1 hour after administration of ^18F-IRS. Corresponding whole body CT scans for attenuation correction were acquired using a low-dose protocol. Consecutively, PET emission data were acquired in three-dimensional mode with a 200 × 200 matrix with 3 min emission time per bed position. The maximum standard uptake value (SUVmax) normalized to body weight […] was calculated within the region of interest with the following formula: [measured activity concentration (Bq/mL) · body weight (kg)]/injected activity (Bq). Calculation of the radioactivity concentration included the use of a calibration factor that converted the activity counts into becquerels, and the decay correction of the Advantage Workstation 4.6 workstation (GE Healthcare) was […].

HCC827 cells [14] = experiment: Cellular uptake, efflux and blocking assay; assay type: cell-based, human; details: for cellular uptake: HCC827 cells
Protocol: as §6

[15] = Biodistribution and clearance in normal organs of tumor-bearing mice; assay type: in vivo, BALB/c nude mice
Protocol: as §3, §5

HCC827 xenografts [16] = experiment: In vivo PET/CT imaging and blocking of tumor-bearing mice; parameters: species or system BALB/c nude mice
Protocol: as §2, §3, §4

H358 cell line = tested on: H358 cell line; parameters: method as in PMID 19826406; details: H358 (EGFR wild type); cited from earlier work
H520 cells [17] = tested on: H520 cells; parameters: method as in PMID 21152424; details: H520 (negative EGFR); cited from earlier work
H1975 = tested on: H1975; parameters: method as in PMID 15767641; details: H1975, L858R and T790M secondary mutation; cited from earlier work
[18] = HCC827 tumors, 120 min after i.v. injection of 3.7 MBq
[19] = Mean ± SD of three patients, 60 min after injection
[20] = patient 1, 60 min after injection
[21] = patient 2, 60 min after injection
[22] = patient 3, 60 min after injection

Compound: FCCOCCOCCOCCOc1cc2ncnc(Nc3ccc(F)c(Cl)c3)c2cc1OCCCN1CCOCC1 [F-IRS]
- IC50 (H3255 cells): 13.1 ± 4.4 nM
- IC50 (HCC827 cells [1]): 5.6 ± 0.2 nM
- IC50 (H358 cells [2]): 7050 ± 2300 nM
- IC50 (H1975 cells [3]): 2270 ± 1170 nM
- IC50 (H520 cells [4]): 18400 ± 2210 nM

Compound: Fc1ccc(Nc2ncnc3cc(OCCOCCOCCOCC[18F])c(OCCCN4CCOCC4)cc23)cc1Cl [^18F-IRS]
- tumor uptake on PET/CT images (H358 xenografts [5]): unobviously detectable
- tumor uptake on PET/CT images (H1975 xenografts): unobviously detectable
- tumor uptake on PET/CT images (H520 xenografts [6]): unobviously detectable
- tumor uptake (ex vivo biodistribution) (H358 xenografts [7]): 1.68 ± 0.29 % ID/g
- tumor uptake (ex vivo biodistribution) (HCC827 xenografts [8]; [18]): 4.27 ± 0.15 % ID/g
- tumor uptake (ex vivo biodistribution) after blocking (HCC827 xenografts [8]; HCC827 xenografts blocked by gefitinib 100 mg/kg, 120 min): 1.12 ± 0.21 ID/g
- tumor uptake (ex vivo biodistribution) (H520 xenografts [9]): 1.62 ± 0.08 % ID/g
- cellular uptake (H358 cells [10]): 1.82 ± 0.19%
- cellular uptake (H1975 cells [11]): 1.49 ± 0.05%
- cellular uptake (H520 cells [12]): 2.31 ± 0.36%
- SUVmax Bladder [13, 19]: 5.11 ± 3.02
- SUVmax Brain [13, 19]: 0.43 ± 0.29
- SUVmax Kidneys [13, 19]: 13.13 ± 0.31
- SUVmax Liver [13, 19]: 10.48 ± 0.44
- SUVmax Lungs [13, 19]: 0.82 ± 0.23
- SUVmax Muscles [13, 19]: 0.65 ± 0.14
- SUVmax Small intestines [13, 19]: 8.05 ± 1.67
- SUVmax Tumor [13, 19]: 2.44 ± 0.49
- SUVmax Bladder [13, 20]: 8.51
- SUVmax Brain [13, 20]: 0.19
- SUVmax Kidneys [13, 20]: 12.96
- SUVmax Liver [13, 20]: 10.52
- SUVmax Lungs [13, 20]: 0.58
- SUVmax Muscles [13, 20]: 0.73
- SUVmax Small intestines [13, 20]: 7.17
- SUVmax Tumor [13, 20]: 2.19
- SUVmax Bladder [13, 21]: 4.11
- SUVmax Brain [13, 21]: 0.76
- SUVmax Kidneys [13, 21]: 13.49
- SUVmax Liver [13, 21]: 10.9
- SUVmax Lungs [13, 21]: 1.04
- SUVmax Muscles [13, 21]: 0.75
- SUVmax Small intestines [13, 21]: 9.99
- SUVmax Tumor [13, 21]: 2.12
- SUVmax Bladder [13, 22]: 2.72
- SUVmax Brain [13, 22]: 0.34
- SUVmax Kidneys [13, 22]: 12.95
- SUVmax Liver [13, 22]: 10.02
- SUVmax Lungs [13, 22]: 0.85
- SUVmax Muscles [13, 22]: 0.49
- SUVmax Small intestines [13, 22]: 7.01
- SUVmax Tumor [13, 22]: 3.01
- main route of elimination ([13]; patients with NSCLC): urinary tract, followed by the hepatobiliary
- changes in heart rates, respiration rates, and blood pressure ([13]; patients with NSCLC, after i.v. injection): no significant changes
- cellular uptake after blocking (HCC827 cells [14]; HCC827 cells treated with 100 μmol/L gefitinib, 120 min of incubation): 0.89 ± 0.12%
- cellular uptake (HCC827 cells [14]; 15 min of incubation): 7.51 ± 1.05%
- cellular uptake (HCC827 cells [14]; 30 min of incubation): 10.03 ± 0.47%
- cellular uptake (HCC827 cells [14]; 120 min of incubation): 14.07 ± 0.98%
- route of elimination ([15]; mice, PET/CT imaging and biodistribution): mainly eliminated through renal clearance
- uptake in all other organs and blood ([15]; tumor-bearing nude mice, except kidneys, intestine and gallbladder): very low
- accumulation in tumors on PET/CT images (HCC827 xenografts [16]; [18]): significantly high accumulation
- tumor/muscle ratio (PET quantification) (HCC827 xenografts [16]; HCC827 vs H1975, H358 and H520 xenografts, 120 min, P < 0.01): significantly higher
- tumor uptake on PET/CT after blocking (HCC827 xenografts [16]; HCC827 xenografts, gefitinib 100 mg/kg before imaging, 120 min): blocked by gefitinib

Compound: COc1cc2ncnc(Nc3ccc(F)c(Cl)c3)c2cc1OCCCN1CCOCC1 [gefitinib]
- sensitivity of cell line (H358 cell line): less sensitive
- sensitivity of cell line (H520 cells [17]): do not respond
- sensitivity of cell line (H1975): conferring resistance
